The source of these data is ChEMBL document CHEMBL3352670, “Synthesis, biological evaluation and molecular modeling of 1,3,4-thiadiazol-2-amide derivatives as novel antitubulin agents” (Bioorg Med Chem, 2014).

Molecules are shown by their SMILES.

One test deals with Tubulin (Bos taurus, UniProt Q6B856+Q862L2+Q862F3). Kind of test: Inhibition of bovine brain tubulin polymerization after 20 mins by turbidimetric method.
The next test concerns HepG2. Kind of test: Antiproliferative activity against […] HepG2 cells after 48 hrs by MTT assay. Conditions: Homo sapiens, HepG2, 48 h. It counts as functional, cell-based. A general note: Tetrazolium assays rely on reduction of a dye to a coloured formazan, in cell work by metabolically active cells.
Test [1] concerns A549. Kind of test: Antiproliferative activity against human A549 cells after 48 hrs by MTT assay. It counts as functional, cell-based. The settings on record: A549, 48 h.
Another test has as its system MCF7. Kind of test: Antiproliferative activity against human MCF7 cells after 48 hrs by MTT assay. It counts as functional, cell-based. The settings on record: MCF7, 48 h.
Test [2] concerns A549. Kind of test: Induction of apoptosis in human A549 cells assessed as early apoptotic cells at 0.05 uM after 24 hrs using Annexin-V/PI staining by flow cytometry (reference value: 1.92 %). It counts as functional. In general terms: In flow cytometry, cells or beads pass a laser one at a time.
Test [3] deals with A549. The experiment in a line: Induction of apoptosis in human A549 cells assessed as late apoptotic cells at 0.05 uM after 24 hrs using Annexin-V/PI staining by flow cytometry (reference value: 4.01 %). The test is classed as functional.
The subject of test [4] is A549. The experiment in a line: Induction of apoptosis in human A549 cells assessed as viable cells at 0.1 uM after 24 hrs using Annexin-V/PI staining by flow cytometry (reference value: 91.0 %). The test is classed as functional. Conditions: A549, 24 h, read-out: Activity.
Test [5] has as its system A549. The experiment in a line: Induction of apoptosis in human A549 cells assessed as late apoptotic cells at 0.1 uM after 24 hrs using Annexin-V/PI staining by flow cytometry (reference value: 4.01 %). The test is classed as functional.
The test system of test [6] is A549. Kind of test: Induction of apoptosis in human A549 cells assessed as viable cells at 0.05 uM after 24 hrs using Annexin-V/PI staining by flow cytometry (reference value: 91.0 %). It counts as functional. The settings on record: A549, 24 h, read-out: Activity.
For test [7], the system named is A549. Kind of test: Cell cycle arrest in human A549 cells assessed as accumulation at G2 phase at 0.1 uM after 48 hrs by flow cytometry (reference value: 6.75 %). The test is classed as functional.
Test [8] relates to A549. The experiment in a line: Cell cycle arrest in human A549 cells assessed as accumulation at G1 phase at 0.1 uM after 48 hrs by flow cytometry (reference value: 79.42 %). The test is classed as functional.
Test [9] deals with A549. The experiment in a line: Cell cycle arrest in human A549 cells assessed as accumulation at G2 phase at 0.01 uM after 48 hrs by flow cytometry (reference value: 6.75 %). The test is classed as functional.
The test system of test [10] is A549. The experiment in a line: Induction of apoptosis in human A549 cells assessed as early apoptotic cells at 0.1 uM after 24 hrs using Annexin-V/PI staining by flow cytometry (reference value: 1.92 %). It counts as functional.
Test [11] relates to A549. Kind of test: Induction of apoptosis in human A549 cells assessed as late apoptotic cells at 0.01 uM after 24 hrs using Annexin-V/PI staining by flow cytometry (reference value: 4.01 %). It counts as functional.
Test [12] relates to A549. The experiment in a line: Induction of apoptosis in human A549 cells assessed as necrotic cells at 0.1 uM after 24 hrs using Annexin-V/PI staining by flow cytometry (reference value: 3.11 %). It counts as functional.
Test [13] relates to A549. The experiment in a line: Cell cycle arrest in human A549 cells assessed as accumulation at G1 phase at 0.05 uM after 48 hrs by flow cytometry (reference value: 79.42 %). It counts as functional.
Test [14] has as its system A549. Kind of test: Cell cycle arrest in human A549 cells assessed as accumulation at G1 phase at 0.01 uM after 48 hrs by flow cytometry (reference value: 79.42 %). It counts as functional.
Test [15] has as its system A549. Kind of test: Cell cycle arrest in human A549 cells assessed as G2/M arrest after 48 hrs by flow cytometry. It counts as functional, cell-based.
Test [16] has as its system A549. Kind of test: Induction of apoptosis in human A549 cells assessed as viable cells at 0.01 uM after 24 hrs using Annexin-V/PI staining by flow cytometry (reference value: 91.0 %). It counts as functional. The settings on record: A549, 24 h, read-out: Activity.
Test [17] concerns A549. The experiment in a line: Induction of apoptosis in human A549 cells assessed as early apoptotic cells at 0.01 uM after 24 hrs using Annexin-V/PI staining by flow cytometry (reference value: 1.92 %). It counts as functional.
The subject of test [18] is A549. Kind of test: Induction of apoptosis in human A549 cells assessed as necrotic cells at 0.05 uM after 24 hrs using Annexin-V/PI staining by flow cytometry (reference value: 3.11 %). It counts as functional.
For test [19], the system named is A549. The experiment in a line: Cell cycle arrest in human A549 cells assessed as accumulation at S phase at 0.1 uM after 48 hrs by flow cytometry (reference value: 13.83 %). It counts as functional.
The subject of test [20] is A549. The experiment in a line: Cell cycle arrest in human A549 cells assessed as accumulation at S phase at 0.01 uM after 48 hrs by flow cytometry (reference value: 13.83 %). The test is classed as functional.
For test [21], the system named is A549. Kind of test: Cell cycle arrest in human A549 cells assessed as accumulation at G2 phase at 0.05 uM after 48 hrs by flow cytometry (reference value: 6.75 %). The test is classed as functional.
The subject of test [22] is A549. Kind of test: Induction of apoptosis in human A549 cells assessed as necrotic cells at 0.01 uM after 24 hrs using Annexin-V/PI staining by flow cytometry (reference value: 3.11 %). The test is classed as functional.
Test [23] concerns A549. The experiment in a line: Cell cycle arrest in human A549 cells assessed as accumulation at S phase at 0.05 uM after 48 hrs by flow cytometry (reference value: 13.83 %). It counts as functional.

A word on the IC50: it is the point on the concentration scale where inhibition reaches its midpoint. A high value points to a need for much substance. Regarding `COc1ccccc1C(=O)Nc1nnc(/C=C/c2cc(OC)c(OC)c(OC)c2Br)s1`, the half-maximal inhibitory concentration (IC50) at Tubulin worked out at 17910 nM; in the test with HepG2, 230 nM; in the test on A549 [1] it was 170 nM; with MCF7, 600 nM.
For `COc1cccc(C(=O)Nc2nnc(/C=C/c3cc(OC)c(OC)c(OC)c3Br)s2)c1`, the concentration for half-maximal inhibition (IC50) against Tubulin was 3080 nM; in the test with HepG2 it was 120 nM; in the test with A549 [1] it was 60 nM; in the test on MCF7 it was 170 nM.
Taken in the same sequence, the figures for `COc1cccc(/C=C/c2nnc(NC(=O)c3cc(OC)c(OC)c(OC)c3Br)s2)c1` were 30360 nM, 210 nM, 190 nM and 590 nM.
Turning to `COc1ccc(C(=O)Nc2nnc(/C=C/c3cc(OC)c(OC)c(OC)c3Br)s2)cc1OC`, the Activity with A549 [2] was determined as 5.48%; in the test on A549 [3], 12.7%; in the test on A549 [5], 22%; in the test on A549 [7], 89.26%; in the test with A549 [8], 0%; in the test on A549 [9] it was 7.14%. Further, the Activity with A549 [10] was 12.9%; in the test on A549 [11], 7.96%; in the test on A549 [12], 3.21%; with A549 [13], 37.17%; in the test on A549 [14], 73.18%; with A549 [15] it was “Dose-dependent effect”. The Activity in the test with A549 [17] is 3.41%; with A549 [18] it was 4.08%; in the test on A549 [19], 10.74%; with A549 [20], 19.68%; in the test on A549 [21], 53.34%; in the test on A549 [22], 3.86%. In the test on A549 [23], the Activity came to 9.49%. Also, in the test with A549 [4], the viability at 0.1 µM was 61.8%. In the test on A549 [6], the viability at 0.05 µM turned out to be 77.8%. For the same compound, the 50% inhibitory concentration (IC50) at Tubulin was 1730 nM; with HepG2, 50 nM; with A549 [1] it was 30 nM; in the test with MCF7 it was 60 nM. In addition, the viability at 0.01 µM with A549 [16] came out at 84.8%.
Take `COc1ccc(/C=C\c2cc(OC)c(OC)c(OC)c2)cc1O` [COMBRETASTATIN A4]: in the test with HepG2, the IC50 stood at 160 nM.
As for `COc1cc(/C=C/c2nnc(NC(=O)c3ccccc3)s2)c(Br)c(OC)c1OC`, the 50% inhibitory concentration (IC50) was found to be 9830 nM at Tubulin, 180 nM in the test on HepG2, 110 nM in the test on A549 [1] and 290 nM in the test with MCF7.
Take `COc1cc(/C=C/c2nnc(NC(=O)c3cc(OC)c(OC)c(OC)c3Br)s2)c(Br)c(OC)c1OC`: the IC50 came out at 16790 nM at Tubulin, 200 nM in the test with HepG2, 130 nM with A549 [1] and 470 nM with MCF7.
Taken in the same sequence, the figures for `COc1ccc(C(=O)Nc2nnc(/C=C/c3cc(OC)c(OC)c(OC)c3)s2)cc1OC` were 15500 nM, 250 nM, 130 nM and 480 nM.
`COc1cc(C(=O)Nc2nnc(/C=C/c3cc(OC)c(OC)c(OC)c3Br)s2)cc(OC)c1OC`: the half-inhibitory concentration (IC50) against Tubulin is 16950 nM; with HepG2, 210 nM; in the test with A549 [1], 140 nM; in the test with MCF7, 510 nM.
Taken in the same sequence, the figures for `COc1cccc(C(=O)Nc2nnc(/C=C/c3cc(OC)c(OC)c(OC)c3)s2)c1` were 22500 nM, 270 nM, 150 nM and 480 nM.
Taken in the same sequence, the figures for `COc1cc(/C=C/c2nnc(NC(=O)c3cc(OC)c(OC)c(OC)c3)s2)cc(OC)c1OC` were 23940 nM, 280 nM, 160 nM and 490 nM.
On the same counts, the results for `COc1ccc(/C=C/c2nnc(NC(=O)c3cc(OC)c(OC)c(OC)c3)s2)cc1OC` are 28060 nM, 220 nM, 160 nM and 560 nM.
As for `COc1cc(/C=C/c2nnc(NC(=O)c3ccc(Cl)cc3)s2)c(Br)c(OC)c1OC`, the concentration for half-maximal inhibition (IC50) on Tubulin amounted to 11810 nM; in the test on HepG2 it was 180 nM; with A549 [1], 140 nM; in the test on MCF7, 280 nM.
Regarding `COc1cc(/C=C/c2nnc(NC(=O)c3cccc(Br)c3)s2)c(Br)c(OC)c1OC`, the half-inhibitory concentration (IC50) was 6020 nM on Tubulin, 160 nM in the test with HepG2, 80 nM in the test with A549 [1] and 260 nM in the test with MCF7.
Taken in the same sequence, the figures for `COc1ccc(C(=O)Nc2nnc(/C=C/c3cc(OC)c(OC)c(OC)c3Br)s2)cc1` were 18790 nM, 220 nM, 150 nM and 560 nM.
On to `COc1ccc(/C=C/c2nnc(NC(=O)c3cc(OC)c(OC)c(OC)c3Br)s2)cc1`, for which the half-maximal inhibitory concentration (IC50) against Tubulin was found to be 28580 nM; in the test with HepG2, 210 nM; with A549 [1] it was 180 nM; in the test with MCF7 it was 550 nM.
On the same counts, the results for `COc1cc(/C=C/c2nnc(NC(=O)c3cccc(O)c3)s2)cc(OC)c1OC` are 23670 nM, 260 nM, 190 nM and 460 nM.
With `COc1cc(/C=C/c2nnc(NC(=O)c3ccc(Br)cc3)s2)c(Br)c(OC)c1OC`, the concentration for half-maximal inhibition (IC50) against Tubulin was 15090 nM; in the test with HepG2 it was 200 nM; in the test with A549 [1], 160 nM; with MCF7 it was 320 nM.
Consider `COc1cc(/C=C/c2nnc(NC(=O)c3ccccc3Br)s2)c(Br)c(OC)c1OC`, for which the IC50 at Tubulin was found to be 19450 nM; in the test with HepG2, 250 nM; with A549 [1] it was 210 nM; with MCF7 it was 370 nM.
For the compound `COc1ccc(/C=C/c2nnc(NC(=O)c3ccccc3OC)s2)cc1OC`, the half-maximal inhibitory concentration (IC50) against Tubulin was 29440 nM; in the test on HepG2 it was 260 nM; in the test on A549 [1] it was 170 nM; with MCF7, 540 nM.
Taken in the same sequence, the figures for `COc1cc(/C=C/c2nnc(NC(=O)c3cccc(F)c3)s2)c(Br)c(OC)c1OC` were 7080 nM, 170 nM, 80 nM and 340 nM.
On to `COc1cc(/C=C/c2nnc(NC(=O)c3cccc(Cl)c3)s2)c(Br)c(OC)c1OC`, for which the IC50 at Tubulin was 5680 nM; with HepG2 it was 150 nM; with A549 [1], 70 nM; with MCF7 it was 230 nM.
On the same counts, the results for `COc1cc(/C=C/c2nnc(NC(=O)c3ccc(F)cc3)s2)c(Br)c(OC)c1OC` are 15630 nM, 240 nM, 190 nM and 380 nM.
On to `COc1cc(/C=C/c2nnc(NC(=O)c3cccc(O)c3)s2)c(Br)c(OC)c1OC`, for which the concentration for half-maximal inhibition (IC50) came to 13440 nM against Tubulin, 220 nM in the test with HepG2, 120 nM with A549 [1] and 360 nM in the test on MCF7.
